#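 48-hour exposure; five concentrations; linearly interpolated endpoints. GI50: concentration for 50% inhibition of growth. TGI: total growth inhibition.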
# Experiments:
# Experiment in all cases: growth of human tumour cells (NCI), 48 h
# U251 CNS = tested on: U251 CNS
# MALME-3M melanoma = tested on: MALME-3M melanoma
# HCC-2998 colon = tested on: HCC-2998 colon
# NCI-H226 lung = tested on: NCI-H226 lung
# K-562 leukemia = tested on: K-562 leukemia
# HOP-92 NSCLC = tested on: HOP-92 NSCLC
# DU-145 prostate = tested on: DU-145 prostate
# HS 578T breast = tested on: HS 578T breast
# NCI-H522 lung = tested on: NCI-H522 lung
# HOP-62 NSCLC = tested on: HOP-62 NSCLC
Structure (SMILES),TGI (U251 CNS) [µM],TGI (MALME-3M melanoma) [µM],TGI (HCC-2998 colon) [µM],TGI (NCI-H226 lung) [µM],TGI (K-562 leukemia) [µM],TGI (HOP-92 NSCLC) [µM],TGI (DU-145 prostate) [µM],TGI (HS 578T breast) [µM],TGI (NCI-H522 lung) [µM],TGI (HOP-62 NSCLC) [µM],GI50 (U251 CNS) [µM],GI50 (MALME-3M melanoma) [µM],GI50 (HCC-2998 colon) [µM],GI50 (NCI-H226 lung) [µM],GI50 (K-562 leukemia) [µM],GI50 (HOP-92 NSCLC) [µM],GI50 (DU-145 prostate) [µM],GI50 (HS 578T breast) [µM],GI50 (NCI-H522 lung) [µM],GI50 (HOP-62 NSCLC) [µM]
C=CO/N=[N+](\[O-])N(CC)CC,> 100,> 100,> 100,> 100,> 100,> 100,> 100,> 100,> 100,> 100,,,,,,,,,,
O=S(=O)(O)O,1480,2050,2150,2390,1230,2010,1620,2240,1770,1070,,,,,,,,,,
Cc1ccc2nc3ccccc3c(NCc3ccc(Cl)cc3)c2c1,11.6,12.5,2.02,17,5.28,5.79,11.5,20.2,14.6,16.3,3.85,5.85,1.02,6.77,1.51,1.38,5.44,7.88,5.85,6.89
CCOC(=O)N1C/C(=C\c2ccccc2)C(=O)/C(=C/c2ccccc2)C1,7.43,16.9,4.8,12.3,> 38.3,22.4,> 55.8,15.3,7.44,24.8,,,,,,,,,,
CN(C)c1ccc(Nc2c3ccccc3nc3ccccc23)cc1,2.7,3.03,3.93,2.68,7.83,3.84,2.94,9.47,2.52,2.59,1.12,1.2,1.41,1.04,0.847,0.622,1.05,1.65,0.685,1.14
COc1cc2c3c(n(CCCN)c(=O)c2cc1OC)-c1ccc([N+](=O)[O-])cc1C3=O,19.8,40.5,13.6,38.3,31.3,30.5,10.6,46.1,10.8,2.26,4.94,16.7,2.29,17.4,5.57,10.5,2.11,22.5,0.489,0.613
O=[N+]([O-])/C=C/c1c(Cl)cccc1Cl,9.27,9.81,8.34,50.6,8.61,12.2,20.6,> 62.9,5.95,13,,,,,,,,,,
CCC(=O)N1C/C(=C/c2ccc(Cl)cc2)C(=O)/C(=C/c2ccc(Cl)cc2)C1,0.897,4.08,1.82,3.5,,4.18,2.65,6.05,2.4,1.53,0.28,2.06,0.735,1.15,0.317,1.66,1.13,2.06,0.973,0.499
COc1cc(-c2nc3ccccc3s2)ccc1OCCCCOc1cc2c(cc1OC)C(=O)N1CCC[C@H]1C=N2,1.63,3.46,2.69,5.05,5.88,1.19,6.06,4.47,3.16,3.37,0.489,1.55,1.1,2.47,0.372,0.475,0.832,1.23,0.736,1.56
C[C@H]1[C@H](C)N1CC(O)Cn1ccnc1[N+](=O)[O-] (some centres undefined),> 100,> 100,> 100,> 100,> 100,> 100,> 100,> 100,> 100,> 100,,,,,,,,,,
C/C(=C\c1ccn(-c2ccccc2N)n1)[C@@H]1C[C@@H]2O[C@]2(C)CCC[C@H](C)[C@H](O)[C@@H](C)C(=O)C(C)(C)[C@@H](O)CC(=O)O1,> 33.6,> 50,> 18.3,> 50,> 50,> 50,0.402,10,0.386,> 50,0.0348,0.127,0.0467,7.14,0.0268,0.146,0.0564,0.0658,0.0511,0.112
O=[N+]([O-])c1cc[n+]([O-])c2ccccc12,1.3,1.12,0.8,1.38,2.07,0.758,0.173,0.703,0.754,1.13,0.298,0.147,0.347,0.311,0.26,0.13,0.0392,0.216,0.214,0.221
[2H]C([2H])([2H])NC(=O)c1nnc(NC(=O)C2CC2)cc1Nc1cccc(-c2ncn(C)n2)c1OC,> 100,> 100,> 100,> 100,> 100,> 100,> 100,> 100,> 100,> 100,59.5,98,96.3,> 100,31.2,17.9,14.9,14.7,23,15.5
C=CC(=O)N1CCC(c2ccc(C(N)=O)c(-c3ccc(Oc4ccccc4)cc3)n2)CC1,> 100,> 100,> 100,79.2,> 100,76.6,> 100,> 100,60.3,> 100,32.4,36.1,58.1,20.3,26.9,10.4,31.7,37.2,11.2,56.2

# — PubChem BioAssay (NCI)
